Test: recombinant UMI read abundance after kanamycin selection (control-corrected) (log10(CPM+1)); higher = more efficient recombination; extreme values may be limits of the assay; sequences stand for … in AGTGCAGAGAAAATCGGCCAGTTTTCTCTGCCTGCAGTCCGCATGCCGTGGGACCCCTTGGGTTCTAACCTGTTGCCTAGATTTATGCAGCGGACTGCCTTTCTCCCAAAGTGATAAACCGG…AGGTTGGTTTCACT; site = the 11-nt donor
Method in brief: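 After plating on IPTG (0.07 mM) plus kanamycin, or unselected, in two replicates, recombinant UMIs were PCR-amplified across the donor–target junction and sequenced. The cells were Escherichia coli co-electroporated with a UMI-tagged donor and donor-binding-loop pair library and a target plasmid with a fixed target and T7-inducible IS621 bridge recombinase. Values are log10(CPM+1), with CPM averaged over replicates and scaled by control-derived factors.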
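Further: IS621 bridge recombinase in Escherichia coli cells against a fixed T5 target plasmid.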

Sequence | recombinant UMI read abundance (log10)
CACATATCATGGACCGGTTTTCCCGGTAATCCGTATTTGTC (site CTCATATCTGA) | 0
CACATCCCATGGACCGGTTTTCCCGGTAATCCGTATTTGCA (site CACATCCCTTG) | 2
CACCGTTCATGGACCGGTTTTCCCGGTAATCCGTATTTGTG (site CACCGTTCTCA) | 1.9
CACCTGCCATGGACCGGTTTTCCCGGTAATCCGTATTTGAC (site CACCTGCCTGT) | 0
CACGCCCCATGGACCGGTTTTCCCGGTAATCCGTATTTGTT (site CACGACCCTAA) | 0.0224
CACGCCCCATGGACCGGTTTTCCCGGTAATCCGTATTTGTT (site CACGCCCCTAA) | 0.348
CACGCCCCATGGACCGGTTTTCCCGGTAATCCGTATTTGTT (site CACGGCCCTAA) | 0
CACGCCCCATGGACCGGTTTTCCCGGTAATCCGTATTTGTT (site CACGTCCCTAA) | 0.0223
CACGCCTCATGGACCGGTTTTCCCGGTAATCCGTATTTGCC (site CACACCTCTGG) | 2.73
CACGCCTCATGGACCGGTTTTCCCGGTAATCCGTATTTGCC (site CACCCCTCTGG) | 1.65
CACGCCTCATGGACCGGTTTTCCCGGTAATCCGTATTTGCC (site CACGCCTCTGG) | 3.32
CACGCCTCATGGACCGGTTTTCCCGGTAATCCGTATTTGCC (site CACTCCTCTGG) | 2.11
CACGCGACATGGACCGGTTTTCCCGGTAATCCGTATTTGTA (site CACGCGACTTA) | 2.4
CACGGCCCATGGACCGGTTTTCCCGGTAATCCGTATTTGAT (site CACGGCCCTAA) | 0.0181
CACGGCCCATGGACCGGTTTTCCCGGTAATCCGTATTTGAT (site CACGGCCCTAC) | 0.0396
CACGGCCCATGGACCGGTTTTCCCGGTAATCCGTATTTGAT (site CACGGCCCTAG) | 0
CACGGCCCATGGACCGGTTTTCCCGGTAATCCGTATTTGAT (site CACGGCCCTAT) | 0.255
CACGGCCCATGGACCGGTTTTCCCGGTAATCCGTATTTGGT (site CACGGCCCTAA) | 0.0236
CACGGCCCATGGACCGGTTTTCCCGGTAATCCGTATTTGGT (site CACGGCCCTAC) | 0.00703

Sequence | recombinant UMI read abundance (log10)
CACGGCCCATGGACCGGTTTTCCCGGTAATCCGTATTTGGT (site CACGGCCCTAG) | 0
CACGGCCCATGGACCGGTTTTCCCGGTAATCCGTATTTGGT (site CACGGCCCTAT) | 0.456
CACGGCCCATGGACCGGTTTTCCCGGTAATCCGTATTTGTA (site CACGGCCCTAA) | 0.00609
CACGGCCCATGGACCGGTTTTCCCGGTAATCCGTATTTGTA (site CACGGCCCTCA) | 0.0202
CACGGCCCATGGACCGGTTTTCCCGGTAATCCGTATTTGTA (site CACGGCCCTGA) | 1.81
CACGGCCCATGGACCGGTTTTCCCGGTAATCCGTATTTGTA (site CACGGCCCTTA) | 0.29
CACGGGCCATGGACCGGTTTTCCCGGTAATCCGTATTTGTT (site CACGGACCTAA) | 0
CACGGGCCATGGACCGGTTTTCCCGGTAATCCGTATTTGTT (site CACGGCCCTAA) | 0.234
CACGGGCCATGGACCGGTTTTCCCGGTAATCCGTATTTGTT (site CACGGGCCTAA) | 0.574
CACGGGCCATGGACCGGTTTTCCCGGTAATCCGTATTTGTT (site CACGGTCCTAA) | 0.00819
CACGGGTCATGGACCGGTTTTCCCGGTAATCCGTATTTGCT (site CACGGGTCTAG) | 2.17
CACGGTCCATGGACCGGTTTTCCCGGTAATCCGTATTTGAT (site CACGGTCCTAT) | 0.938
CACGGTTCATGGACCGGTTTTCCCGGTAATCCGTATTTGGG (site CACGGTTCTCC) | 1.03
CACGTACCATGGACCGGTTTTCCCGGTAATCCGTATTTGCA (site CACGTACCTTG) | 0
CACTACTCATGGACCGGTTTTCCCGGTAATCCGTATTTGTT (site CACTACTCTAA) | 2.71
CACTAGGCATGGACCGGTTTTCCCGGTAATCCGTATTTGTA (site CACTAGGCTTA) | 1.42
CACTATGCATGGACCGGTTTTCCCGGTAATCCGTATTTGAT (site CACTATGCTAT) | 1.93
CACTCAGCATGGACCGGTTTTCCCGGTAATCCGTATTTGCC (site CACTCAGCTGG) | 2.5
CACTCCACATGGACCGGTTTTCCCGGTAATCCGTATTTGCG (site CACTCCACTCG) | 1.09

Sequence | recombinant UMI read abundance (log10)
CACTCGGCATGGACCGGTTTTCCCGGTAATCCGTATTTGGA (site CACTAGGCTTC) | 0.232
CACTCGGCATGGACCGGTTTTCCCGGTAATCCGTATTTGGA (site CACTCGGCTTC) | 1.09
CACTCGGCATGGACCGGTTTTCCCGGTAATCCGTATTTGGA (site CACTGGGCTTC) | 0.201
CACTCGGCATGGACCGGTTTTCCCGGTAATCCGTATTTGGA (site CACTTGGCTTC) | 0.0193
CACTCTTCATGGACCGGTTTTCCCGGTAATCCGTATTTGCC (site CACTCATCTGG) | 1.6
CACTCTTCATGGACCGGTTTTCCCGGTAATCCGTATTTGCC (site CACTCCTCTGG) | 2.13
CACTCTTCATGGACCGGTTTTCCCGGTAATCCGTATTTGCC (site CACTCGTCTGG) | 0
CACTCTTCATGGACCGGTTTTCCCGGTAATCCGTATTTGCC (site CACTCTTCTGG) | 2.07
CACTGTACATGGACCGGTTTTCCCGGTAATCCGTATTTGCG (site CACTGTACTCG) | 1.83
CACTTAGCATGGACCGGTTTTCCCGGTAATCCGTATTTGGA (site CACTTAGCTTC) | 1.16
CACTTAGCATGGACCGGTTTTCCCGGTAATCCGTATTTGGA (site CACTTCGCTTC) | 0.00475
CACTTAGCATGGACCGGTTTTCCCGGTAATCCGTATTTGGA (site CACTTGGCTTC) | 0.0129
CACTTAGCATGGACCGGTTTTCCCGGTAATCCGTATTTGGA (site CACTTTGCTTC) | 0
CACTTGCCATGGACCGGTTTTCCCGGTAATCCGTATTTGGA (site CACTTGACTTC) | 0.0268
CACTTGCCATGGACCGGTTTTCCCGGTAATCCGTATTTGGA (site CACTTGCCTTC) | 0.021
CACTTGCCATGGACCGGTTTTCCCGGTAATCCGTATTTGGA (site CACTTGGCTTC) | 0.0247
CACTTGCCATGGACCGGTTTTCCCGGTAATCCGTATTTGGA (site CACTTGTCTTC) | 0.137
CACTTGGCATGGACCGGTTTTCCCGGTAATCCGTATTTGGA (site AACTTGGCTTC) | 0.00381
CACTTGGCATGGACCGGTTTTCCCGGTAATCCGTATTTGGA (site CAATTGGCTTC) | 0.432

Source: the supplement of paper PMC11208160
